Measured values: patent US12501899B2, “Mite infestation treatment” (priority 2019, dated 2025)
Where a name gives a salt, the structure may show the parent alone. Read-outs that look alike come from different tables or passages of the source.

Columns and labels:
Varroa destructor = system: Varroa destructor
Procedure: About 300 bees (Apis mellifera) infected with Varroa destructor were taken from a hive superinfected with Varroa destructor. The bees were then placed in a device allowing to detach Varroa mites attached to the bees (device described in Community model n° 003419415-0001) filled with icing sugar. The device was stirred for 2 minutes to sample the Varroa mites attached to the bees. The icing sugar allows to interfere between the bee and the Varroa mite that was attached thereto. Varroa mites were harvested with icing sugar because they pass through the holes in the device, unlike bees. The Varroa mites were then separated from the icing sugar.
The Varroa mites thus recovered were dispatched in boxes (10 Varroa mites per box).
(§1) The bees were then dispatched in the boxes (10 per box).
(§2) The bees were then put to sleep for a few minutes using CO2 (flow of 3 liters for 20 seconds) in order to deposit 1 μL of compound to be tested on their thorax using a pipette. It should be noted that the bees which received romifidine hydrochloride at a concentration of 10 μg/μL received 2 μL of product. The bees were unconscious for the time the compound to be tested was deposited, that is to say around three minutes, then they woke up.
(§3) After thoracic deposition of the compound to be tested, the 10 bees from the same box were transferred to a box containing the 10 Varroa mites (cf. “Preparation of Varroa mites” above). Liquid sugar was left in each of the boxes to feed the bees during the observations. The series of boxes was then placed in an oven at […] with a humidity of 50% in order to approximate hive conditions as closely as possible.
(§4) The mortality of Varroa mites and bees was then monitored 5 minutes, 2 hours, 4 hours and 24 hours after application of the compound to be tested to the bees. Dead Varroa mites correspond to Varroa mites detached from the bees. Dead bees correspond to bees which no longer move and which are often placed on their thorax.
(§5) The following compositions were applied to the thorax of the bees: • Solvent, • Amitraz at 1 μg/μL in acetone, • Clonidine hydrochloride at 100 μg/μL, 10 μg/μL, 1 μg/μL and 0.1 μg/μL in methanol, • Detomidine hydrochloride monohydrate at 1 μg/μL in methanol, • Dexmedetomidine hydrochloride at 100 μg/μL, 10 μg/μL, 1 μg/μL and 0.1 μg/μL in methanol, • Romifidine hydrochloride at 10 μg/μL and at 5 μg/μL in methanol, • Tizanidine hydrochloride at 1 μg/μL in methanol, • Medetomidine hydrochloride at 0.1 μg/μL in ethanol, • Levomedetomidine hydrochloride at 100 μg/μL, 10 μg/μL, 1 μg/μL and 0.1 μg/μL in methanol, • Octopamine at 1 μg/μL in ethanol. Results

bees (Apis mellifera) = details: for bees killed / bee mortality / bees killed: 1 μL on bee thorax; for bees killed / bee mortality: time not stated (monitored up to 24 hours); for mortality / toxicity for the bees: after 24 hours
Procedure: as §1, §2, §3, §4, §5

NCC(O)c1ccc(O)cc1 (stereo not drawn) [Octopamine]
Varroacid effect (in words) (Varroa destructor; 1 μg/μL in ethanol): No Varroacid effect | bees killed / bee mortality (bees (Apis mellifera); 1 μg/μL): zero

Cc1cccc(Cc2cnc[nH]2)c1C [Detomidine hydrochloride monohydrate, 4-[(2,3-dimethylphenyl)-methyl]-3H-imidazole]
Varroa mites killed (Varroa destructor; 1 μg/μL, after 2 hours): 40% | Varroa mites killed / Varroa mite mortality (Varroa destructor; 1 μg/μL, after 24 hours): 100% | mortality for the bees (bees (Apis mellifera); 1 μg/μL, after 2 hours): without mortality | mortality / toxicity for the bees (bees (Apis mellifera); 1 μg/μL): without mortality

Clc1ccc2nsnc2c1NC1=NCCN1 [Tizanidine hydrochloride, 4-Chloro-N-(4,5-dihydro-1H-imidazol-2-yl)-8-thia-7,9-diazabicyclo, nona-2,4,6,9-tetraen-5-amine]
mortality / toxicity for the bees (bees (Apis mellifera); 1 μg/μL): without toxicity

Clc1cccc(Cl)c1NC1=NCCN1 [Clonidine hydrochloride, N-(2,6-dichlorophenyl)-4,5-dihydro-1H-imidazol-2-amine]
kinetics of the Varroacid effect (in words) (Varroa destructor; full efficiency after 24 hours): rather slow compared to the positive control | bees killed / bee mortality (bees (Apis mellifera); 1 μg/μL): zero mortality | bees killed (bees (Apis mellifera); 10 μg/μL): 10% | bees killed (bees (Apis mellifera); 100 μg/μL): 10%

Fc1cccc(Br)c1NC1=NCCN1 [Romifidine hydrochloride, N-(2-bromo-6-fluorophenyl)-4,5-dihydro-1H-imidazol-2-amine]
mortality of Varroa mites (Varroa destructor; 5 μg/μL, 24 hours, compared with 10 μg/μL at 4 hours): same level of mortality | mortality of Varroa mites (Varroa destructor; 2 μl of product at 10 μg/μL, after 2 hours): 75% | mortality of Varroa mites (Varroa destructor; 2 μl of product at 10 μg/μL, after 4 hours): 95% | Bee mortality (bees (Apis mellifera); all doses (10 and 5 μg/μL), even after 24 hours): zero
